Test results taken from patent EP4682145A1, “BENZOHETEROCYCLIC COMPOUND, AND PREPARATION METHOD THEREFOR AND USE THEREOF” (Cascade Pharmaceuticals, Inc., priority 2023, dated 2024).

Target: T1, human FFAR1 (GPR40) (Homo sapiens, UniProt O14842)
T1 construct: Flag; expressed in transfected cells; host or cells: HEK293T
Experiment: NFAT-RE-based reporter gene activity assay (Dual-Glo luciferase) for GPR40 agonistic activity in co-transfected HEK293T cells
Type: cell-based
Conditions: 4-hour treatment; for Efficacy (%): class symbols
Method in brief: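 Agonism read as NFAT-RE-driven firefly luciferase over Renilla control (Dual-Glo) after 4 h compound exposure, top concentration 1 µM, 10 half-log steps.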

T1 sequence (O14842 whole entry): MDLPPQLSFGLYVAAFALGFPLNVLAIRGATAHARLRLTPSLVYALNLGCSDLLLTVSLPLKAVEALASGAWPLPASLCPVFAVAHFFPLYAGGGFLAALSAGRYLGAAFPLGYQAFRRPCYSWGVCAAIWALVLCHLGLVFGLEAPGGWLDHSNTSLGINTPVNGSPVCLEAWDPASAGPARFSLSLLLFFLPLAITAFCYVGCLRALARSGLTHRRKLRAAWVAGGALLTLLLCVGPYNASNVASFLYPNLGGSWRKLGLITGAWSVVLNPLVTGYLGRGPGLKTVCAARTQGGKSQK

SMILES	EC50	Efficacy (%)
COc1cccc(N2CCC(c3oc4cc([C@H](C5CC5)C(C)(C)C(N)=O)ccc4c3-c3cnn(C(C)(C)C)c3)CC2)c1 [Compound 71]	100 to 500 nM	†† (150 ≥ Efficacy (%) > 100)
COc1cccc(N2CCC(c3oc4cc([C@@H](CC(=O)O)C5CC5)ccc4c3-c3ccc4c(c3)C3(CCCCC3)c3ccccc3-4)CC2)c1 [Compound 81]	100 to 500 nM	† (100 ≥ Efficacy (%) > 50)
COc1cccc(N2CCC(c3oc4cc([C@@H](CC(=O)O)C5CC5)ccc4c3-c3nnc(C(C)(C)C)o3)CC2)c1 [Compound 125]	10 to 100 nM	†† (150 ≥ Efficacy (%) > 100)
COc1cccc(N2CCC(c3oc4cc(CC(C)C(=O)O)ccc4c3-c3cnn(C(C)(C)C)c3)CC2)c1 (stereo not shown) [Compound 60]	100 to 500 nM	†† (150 ≥ Efficacy (%) > 100)
COc1ccc(F)c(N2CCC(c3oc4cc(C(CC(=O)O)C5CC5)ccc4c3/C=C/C(C)(C)C)CC2)c1 (stereo not shown) [Compound 366]	10 to 100 nM	†† (150 ≥ Efficacy (%) > 100)
COc1cccc(N2CCC(c3oc4cc(C(CC(=O)O)C5CC5)ccc4c3-c3cnn(C(C)(C)C)c3)CC2)n1 (stereo not shown) [Compound 79]	100 to 500 nM	†† (150 ≥ Efficacy (%) > 100)
COc1cccc(N2CCC(c3oc4cc([C@@H](CC(=O)O)C5CC5)ccc4c3C(O)C(C)(C)C)CC2)c1 (stereo partly shown) [Compound 423]	100 to 500 nM	† (100 ≥ Efficacy (%) > 50)
COc1cccc(N2CCC(c3oc4cc(C(CCO)C5CC5)ccc4c3-c3cnn(C(C)(C)C)c3)CC2)c1 (stereo not shown) [Compound 56]	100 to 500 nM	† (100 ≥ Efficacy (%) > 50)
COc1cc(N2CCC(c3oc4cc(C(CC(=O)O)C5CC5)ccc4c3-c3ccc(C(C)(C)C)cc3)CC2)ccc1F (stereo not shown) [Compound 206]	100 to 500 nM	†† (150 ≥ Efficacy (%) > 100)
COc1ccc(F)c(N2CCC(c3oc4cc(C(CC(=O)O)C5CC5)ccc4c3C(=O)Nc3ccc(C)cc3)CC2)c1 (stereo not shown) [Compound 321]	100 to 500 nM	†† (150 ≥ Efficacy (%) > 100)
COc1cccc(N2CCC(c3oc4cc([C@@H](CC(=O)O)C5CC5)ccc4c3C(=O)Nc3cc(OC)ccc3F)CC2)c1 [Compound 260]	10 to 100 nM	††† (Efficacy (%) > 150)
COc1cccc(N2CCC(c3oc4cc([C@H](C5CC5)C(C)C(=O)O)ccc4c3-c3cnn(C(C)(C)C)c3)CC2)c1 (stereo partly shown) [Compound 55]	≤ 10 nM	†† (150 ≥ Efficacy (%) > 100)
COc1ccc(F)c(N2CCC(c3oc4cc(C(CC(=O)O)C5CC5)ccc4c3-c3cccc(Cl)c3)CC2)c1 (stereo not shown) [Compound 171]	100 to 500 nM	†† (150 ≥ Efficacy (%) > 100)
COc1cccc(N2CCC(c3oc4cc(C(CC(=O)O)C5CC5)ccc4c3-c3nnc(-c4ccccc4)o3)CC2)c1 (stereo not shown) [Compound 133]	100 to 500 nM	† (100 ≥ Efficacy (%) > 50)
CCCCC(C)(C)c1nnc(-c2c(C3CCN(c4cccc(OC)c4)CC3)oc3cc(C(CC(=O)O)C4CC4)ccc23)o1 (stereo not shown) [Compound 130]	10 to 100 nM	†† (150 ≥ Efficacy (%) > 100)
COc1cccc(N2CCC(c3oc4cc(C(CC(=O)O)C5CC5)ccc4c3-c3cccc(N(CC(C)(C)C)C(C)=O)n3)CC2)c1 (stereo not shown) [Compound 148]	100 to 500 nM	†† (150 ≥ Efficacy (%) > 100)
COc1ccc(C(=O)Nc2cccc(C)n2)c(N2CCC(c3oc4cc(C(CC(=O)O)C5CC5)ccc4c3-c3cnn(C(C)(C)C)c3)CC2)c1 (stereo not shown) [Compound 94]	100 to 500 nM	† (100 ≥ Efficacy (%) > 50)
COc1cccc(N2CCC(c3oc4cc([C@@H](CC(=O)O)C5CC5)ccc4c3C(=O)Nc3cc(C(F)(F)F)ccc3Cl)CC2)c1 [Compound 275]	10 to 100 nM	††† (Efficacy (%) > 150)

SMILES	EC50	Efficacy (%)
COc1ccc(F)c(N2CCC(c3oc4cc(C(CC(=O)O)C5CC5)ccc4c3-c3cccc(NC(C)C)c3)CC2)c1 (stereo not shown) [Compound 187]	100 to 500 nM	†† (150 ≥ Efficacy (%) > 100)
COc1cccc(N2CCC(c3oc4cc([C@@H](CC(=O)O)C5CC5)ccc4c3-c3ccc(OC(C)C)cc3)CC2)c1 [Compound 33]	10 to 100 nM	†† (150 ≥ Efficacy (%) > 100)
COc1ccc(Cl)c(N2CCC(c3oc4cc(C(CC(=O)O)C5CC5)ccc4c3-c3cccc(C(C)(C)C)c3)CC2)c1 (stereo not shown) [Compound 203]	100 to 500 nM	† (100 ≥ Efficacy (%) > 50)
COc1cccc(N2CCC(c3oc4cc([C@@H](CC(=O)O)C5CC5)ccc4c3-c3nc(C(C)C)cs3)CC2)c1 [Compound 109]	100 to 500 nM	†† (150 ≥ Efficacy (%) > 100)
COc1ccc(F)c(N2CCC(c3oc4cc([C@@H](CC(=O)O)C5CC5)ccc4c3CCCC3CC3)CC2)c1 [Compound 391]	100 to 500 nM	†† (150 ≥ Efficacy (%) > 100)
COc1cccc(N2CCC(c3oc4cc(C(CC(=O)O)C5CC5)ccc4c3C(=O)Nc3c(F)cccc3C(F)(F)F)CC2)c1 (stereo not shown) [Compound 263]	100 to 500 nM	†† (150 ≥ Efficacy (%) > 100)
COc1ccc(F)c(N2CCC(c3oc4cc(C(CC(=O)O)C5CC5)ccc4c3C(=O)NC3CC3)CC2)c1 (stereo not shown) [Compound 308]	> 500 nM	†† (150 ≥ Efficacy (%) > 100)
COc1cccc(N2CCC(c3oc4cc([C@@H](CC(=O)O)C5CC5)ccc4c3CN(C)CC(C)(C)C)CC2)c1 [Compound 438]	10 to 100 nM	†† (150 ≥ Efficacy (%) > 100)
COc1ccc(F)c(N2CCC(c3oc4cc([C@@H](CC(=O)O)C5CC5)ccc4c3C(=O)Nc3cc(C)ccc3Cl)CC2)c1 [Compound 343]	≤ 10 nM	††† (Efficacy (%) > 150)
COc1ccc(C(=O)N(C)c2ccccc2)c(N2CCC(c3oc4cc([C@@H](CC(=O)O)C5CC5)ccc4c3-c3cnn(C(C)(C)C)c3)CC2)c1 [Compound 93]	100 to 500 nM	††† (Efficacy (%) > 150)
CC(C)(C)n1cc(-c2c(C3CCN(c4cccc(OC(F)F)c4)CC3)oc3cc(C(CC(=O)O)C4CC4)ccc23)cn1 (stereo not shown) [Compound 43]	100 to 500 nM	†† (150 ≥ Efficacy (%) > 100)
CCC(C)COC(C)c1c(C2CCN(c3cccc(OC)c3)CC2)oc2cc([C@@H](CC(=O)O)C3CC3)ccc12 (stereo partly shown) [Compound 413]	100 to 500 nM	††† (Efficacy (%) > 150)
Cc1ccccc1NC(=O)c1c(C2CCN(c3ccc4c(c3)OCO4)CC2)oc2cc([C@@H](CC(=O)O)C3CC3)ccc12 [Compound 330]	10 to 100 nM	†† (150 ≥ Efficacy (%) > 100)
COc1cccc(N2CCC(c3oc4cc([C@@H](CC(=O)O)C5CC5)ccc4c3C(C)OCC[C@@H](C)CCC=C(C)C)CC2)c1 (stereo partly shown) [Compound 415]	> 500 nM	††† (Efficacy (%) > 150)
COc1cccc(N2CCC(c3oc4cc([C@@H](CC(=O)O)C5CC5)ccc4c3C(=O)Nc3cccc(C)c3)CC2)c1 [Compound 242]	100 to 500 nM	†† (150 ≥ Efficacy (%) > 100)
COc1ccc(F)c(N2CCC(c3oc4cc(C(CC(=O)O)C5CC5)ccc4c3-c3cccc(N(CC(C)(C)C)C(C)=O)c3)CC2)c1 (stereo not shown) [Compound 190]	100 to 500 nM	†† (150 ≥ Efficacy (%) > 100)
COc1cccc(N2CCC(c3oc4cc([C@@H](CC(=O)O)C5CC5)ccc4c3C(OCC(C)C)c3ccccc3)CC2)c1 (stereo partly shown) [Compound 426]	10 to 100 nM	††† (Efficacy (%) > 150)
